# Reference: the PolyMetriX glass transition set
# ± gives the standard deviation of the reports.
row,SMILES,glass transition temperature [°C]
1,*CNC(=O)OCC(OC(=O)NCc1ccc(*)o1)c1ccco1 (repeat unit),30.00
2,*OC(COC(=O)c1ccc(C(*)=O)c(OC)c1)COc1ccc(/N=N/c2ccc(C#N)cc2)cc1 (repeat unit),120.00
3,*c1ccc(N2C(=O)c3ccc(-c4ccc5c(c4)C(=O)N(c4ccc6[nH]c(*)nc6c4)C5=O)cc3C2=O)cc1 (repeat unit),397.50
4,*O[Si](C)(C)c1ccc2ccc([Si](*)(C)C)cc2c1 (repeat unit),26.00
5,"*CC(*)c1cc(C)ccc1C (repeat unit) [Poly(2,5-dimethyl styrene) ]",143 ± 0.6
6,*Oc1ccc(Oc2ccc(NC(=O)c3cc(C(=O)Nc4ccc(*)cc4)cc(C(C)(C)C)c3)cc2)cc1 (repeat unit),195.50
7,*CC(O)COC(=O)CCCCCCCCC(=O)OCC(O)COc1ccc(C(=O)Oc2ccc(O*)cc2)cc1 (repeat unit),36.00
8,*Oc1ccc(C(C)(C)c2cc(Cl)c(OC(*)=O)c(Cl)c2)cc1 (repeat unit),186.00
9,*c1ccc2c(c1)C(=O)N(c1cc(C(=O)Nc3ccc(C(c4ccc(NC(=O)c5ccc(C)c(N6C(=O)c7ccc(C(*)(C(F)(F)F)C(F)(F)F)cc7C6=O)c5)cc4)(C(F)(F)F)C(F)(F)F)cc3)ccc1C)C2=O (repeat unit),293.50
10,*CCCP(=O)(CCCNC(=O)CCCCC(=O)N*)c1ccccc1 (repeat unit),55.00
11,*Nc1cc(NC(=O)c2ccc(-c3ccc(C(*)=O)cc3)cc2)cc(-c2nnc(-c3ccccn3)o2)c1 (repeat unit),120.00
12,*CCOCCOCCOC(=O)NCCCCCCNC(=O)O* (repeat unit),-6.50
13,*CC(*)(C)C(=O)OCCCCOc1ccc(OC(=O)c2ccc(OC)cc2)cc1 (repeat unit),57.00
14,*O[Si](*)(C)CCCCCCOc1ccc(C(=O)Oc2ccc(C(=O)OCC(C)CC)cc2)cc1 (repeat unit),-9.00
15,*CC(*)c1cc(C(C)(C)C)ccc1C (repeat unit),87.00
16,*C[Si](*)(C)CCCOCCOCCOC (repeat unit),-73.30
17,*c1ccc2c(c1)C(=O)N(c1ccc(S(=O)(=O)c3ccc(N4C(=O)c5ccc(C(F)(F)C(F)(F)C(*)(F)F)cc5C4=O)cc3)cc1)C2=O (repeat unit),259.00

row,SMILES,glass transition temperature [°C]
1,*CC(*)C[Si](C)(C)C (repeat unit),114.00
2,*CC(*)c1ccc(Br)cc1 (repeat unit) [Poly(4-bromostyrene)],140.4 ± 5.4
3,*CC(*)c1ccc(B(Oc2ccc(-c3ccc(OC)cc3)c3cccnc23)c2ccc(C(C)(C)C)cc2)cc1 (repeat unit),220.00
4,*Nc1cc(NC(=O)c2cc(OCCN(C)c3ccc(C#N)cc3)cc(C(*)=O)c2)cc(C(=O)OCCN(C)c2ccc(S(=O)(=O)C(F)(F)C(F)(F)C(F)(F)C(F)(F)C(F)(F)C(F)(F)C(F)(F)C(F)(F)F)cc2)c1 (repeat unit),165.00
5,*c1ccc2cc(OC(=O)c3ccc(C(=O)Oc4ccc5cc(-c6nc7ccccc7nc6*)ccc5c4)cc3)ccc2c1 (repeat unit),136.00
6,*CCCCCCCCCCCC(=O)Oc1ccc(-c2ccc(OC(=O)c3ccc4c(c3)C(=O)N(*)C4=O)cc2)cc1 (repeat unit),60.00
7,*Oc1ccc(S(=O)(=O)c2ccc(OC(=O)c3ccc([Si](c4ccccc4)(c4ccccc4)c4ccc(C(*)=O)cc4)cc3)cc2)cc1 (repeat unit),250.00
8,*CCCCOC(=O)O* (repeat unit),-27.00
9,*C(=O)Nc1ccc(Oc2ccc(Oc3ccc(NC(=O)c4ccc5c(c4)C(=O)N(c4ccc(Oc6ccc(N7C(=O)c8ccc(*)cc8C7=O)cc6)cc4)C5=O)cc3)cc2)cc1 (repeat unit),260.00
10,*c1ccc(Oc2ccc(-n3nccc3-c3cccc(-c4ccnn4*)c3)cc2)cc1 (repeat unit),216.00
11,*c1cc(CCCCCCOC(=O)Cc2ccccc2)c(*)s1 (repeat unit),45.00
12,*CC(*)(C)C(=O)OCc1ccsc1 (repeat unit),83.50
13,*CC1(*)OCC(c2ccccc2)O1 (repeat unit),75.00
14,*C/C=C/C[Si](*)(C)C (repeat unit),-57.50
15,*c1cc(C(c2ccc(OCCN(C)c3ccc(/C=C/C4=CC(=C(/C#N)C(=O)OCc5ccc(Oc6c(F)c(F)c(F)c(F)c6F)cc5)/CC(C)(C)C4)cc3)c(N3C(=O)c4ccc(Oc5ccc6c(c5)C(=O)N(*)C6=O)cc4C3=O)c2)(C(F)(F)F)C(F)(F)F)ccc1OCCN(c1ccccc1)c1ccc(/C=C/C2=CC(=C(/C#N)C(=O)OCc3ccc(Oc4c(F)c(F)c(F)c(F)c4F)cc3)/CC(C)(C)C2)cc1 (repeat unit),162.00
16,*CCC(CC)CC(C)CNC(=O)c1ccc(C(=O)N*)cc1 (repeat unit),139.00

# Second part, the compound after the results:
row,glass transition temperature [°C],SMILES
1,136.00,*Oc1ccc(C2(c3ccc(OC(=O)CCCCCCCCCC(*)=O)cc3)c3ccccc3-c3ccccc32)cc1 (repeat unit)
2,62.00,*CCCCCCCCCCCc1nc2ccc(-c3ccc4nc(*)oc4c3)cc2o1 (repeat unit)
3,302.00,*C(=O)Nc1cccc(NC(=O)c2ccc3[nH]c(-c4cccc(-c5nc6cc(*)ccc6[nH]5)c4)nc3c2)n1 (repeat unit)
4,240.00,*Oc1ccc(C(c2ccc(Oc3ccc(C(=O)Nc4ccc(-c5ccc(NC(=O)c6ccc(*)cc6)cc5C(F)(F)F)c(C(F)(F)F)c4)cc3)cc2)(C(F)(F)F)C(F)(F)F)cc1 (repeat unit)
5,98.00,*Oc1ccc(C(C)(C)c2ccc(Oc3c(F)c(F)c(COC(c4cccc(C(OCc5c(F)c(F)c(*)c(F)c5F)(C(F)(F)F)C(F)(F)F)c4)(C(F)(F)F)C(F)(F)F)c(F)c3F)cc2)cc1 (repeat unit)
6,185.00,*Oc1ccc(C(C)(C)c2ccc(Oc3ccc(C(=O)c4ccc5cc(C(=O)c6ccc(*)cc6)ccc5c4)cc3)cc2)cc1 (repeat unit)
7,127.00,*CC(*)c1ccccc1C(=O)OCC(C)C (repeat unit)
8,180.00,*CC(CC(*)(C#N)C#N)c1ccc(CCl)cc1 (repeat unit)
9,107.00,*CC(COc1ccc(C2CCCC(CC)(c3ccc(O*)cc3)C2)cc1)OC(C)=O (repeat unit)
10,123.00,*CCCCC(=O)Oc1ccc(-c2ccc(OC(=O)c3ccc4c(c3)C(=O)N(*)C4=O)cc2)cc1 (repeat unit)
11,319.00,*c1cccc(-c2nc3cc(-c4ccc5nc(*)c(-c6ccccc6)nc5c4)ccc3nc2-c2ccccc2)c1 (repeat unit)
12,41.00,*CCCCCCCCCCCCC(=O)N* (repeat unit)
13,17.00,*CCOCCOCCOCCOCCOc1ccc(/C=C(\C)c2ccc(O*)cc2)cc1 (repeat unit)
14,-23.00,*CC(*)(CC(=O)OCCCCCCC)C(=O)OCCCCCCC (repeat unit)
15,259.00,*c1cccc(N2C(=O)c3cccc(Oc4ccc(Oc5cccc6c5C(=O)N(*)C6=O)cc4)c3C2=O)c1 (repeat unit)
16,250.00,*c1ccc2c(c1)C(=O)N(c1ccc(Oc3ccc(N4C(=O)c5ccc(C(*)O)cc5C4=O)cc3)cc1)C2=O (repeat unit)

row,glass transition temperature [°C],SMILES
1,256.00,*Oc1cccc2ccc(Oc3ccc(NC(=O)c4cccc(C(=O)Nc5ccc(*)cc5)c4)cc3)cc12 (repeat unit)
2,83.00,*CC(*)C(=O)OCCCn1c2ccccc2c2ccccc21 (repeat unit)
3,413.00,*Oc1ccc2cc(Oc3ccc4c(=O)n5c6cc(-c7ccc8c(c7)nc7c9ccc(*)c%10cccc(c(=O)n87)c%109)ccc6nc5c5cccc3c45)ccc2c1 (repeat unit)
4,154.00,*c1cc(Br)c(-c2c(Br)cc(N3C(=O)c4ccc(-c5ccc6c(c5)C(=O)N(*)C6=O)cc4C3=O)cc2C(=O)OCCCCCC)c(C(=O)OCCCCCC)c1 (repeat unit)
5,286.00,*c1ccc(S(=O)(=O)c2ccc(NC(=O)c3cccc(C(=O)Nc4ccc(S(=O)(=O)c5ccc(-n6c(=O)c7cc8c(=O)n(*)c(=O)c8cc7c6=O)cc5)cc4)c3)cc2)cc1 (repeat unit)
6,92.00,*c1cccc(S(=O)(=O)NCCCNS(*)(=O)=O)c1 (repeat unit)
7,308.00 ± 6.8,*c1ccc(Cc2ccc(N3C(=O)c4ccc(-c5ccc6c(c5)C(=O)N(*)C6=O)cc4C3=O)cc2)cc1 (repeat unit)
8,240.00,*Nc1ccc(C(c2ccc(NC(=O)c3cc(NC(=O)CCCN4C(=O)c5ccccc5C4=O)cc(C(*)=O)c3)cc2)(C(F)(F)F)C(F)(F)F)cc1 (repeat unit)
9,90.00,*Oc1ccc(C(C)(C)c2ccc(OC(=O)c3ccc(C(*)=O)cc3)c(C(C)CC)c2)cc1C(C)CC (repeat unit)
10,185.00,*Nc1cccc2c(NC(=O)Nc3cc(NC(*)=O)cc(C(=O)Nc4cccc5c4C(=O)c4ccccc4C5=O)c3)cccc12 (repeat unit)
11,135.00,*CCCCC(C)CCn1c(=O)c2cc3c(=O)n(*)c(=O)c3cc2c1=O (repeat unit)
12,135.00,*CC(O)COc1ccc(C(C)(C)C2CCC(C)(c3ccc(O*)cc3)CC2)cc1 (repeat unit)
13,288.00,*c1ccc2c(c1)C(=O)N(c1ccc(Oc3ccc(-c4ccc(Oc5ccc(N6C(=O)c7ccc(C(*)(C(F)(F)F)C(F)(F)F)cc7C6=O)cc5)cc4)cc3)cc1)C2=O (repeat unit)
14,30.00,*Oc1ccc(C(=O)OCCOCCOCCOCCOC(=O)c2ccc(OC(=O)c3ccc(C(*)=O)cc3)cc2)cc1 (repeat unit)
15,322.00,*C(=O)Nc1ccc(Oc2ccc(C3(c4ccc(Oc5ccc(NC(=O)c6ccc7c(c6)C(=O)N(c6ccc(N8C(=O)c9ccc(*)cc9C8=O)cc6)C7=O)cc5)cc4)NC(=O)c4ccccc43)cc2)cc1 (repeat unit)
